Broadly, the inhibition is the relative decrease from the control value, in per cent. A low value points to little suppression.

These results are taken from patent publication US5194446A, “Compounds having one or more aminosulfaonyloxy radicals useful as pharmaceuticals” (A. H. Robins Company, Incorporated, priority 1991, dated 1993).

Data set [1] has as its system adjuvant-induced arthritis test model in rats. The experiment in a line: adjuvant-induced arthritis test model in rats. The format is in vivo, rat (adult, female Lewis). The procedure: The test utilized to evidence antiarthritic properties of the compounds of Formula I is an adjuvant-induced arthritis test model in rats. Adjuvant arthritis was induced in adult, female Lewis rats as described by Walz et al. J. Pharmac. Exp. Ther. 178:223-231 (1971). Briefly, arthritis was induced in the rats by injection of 0.05 ml of a 1.5% suspension of killed Mycobacterium Butyricum into the right rear foot pad of each rat. Eighteen days later, those rats having a left hind paw volume (measured by mercury displacement up to a reference tatoo mark placed on the leg on Day 0) of 2.4 ml or greater were randomly assigned to treatment groups. The test, reference and control articles (as solutions or suspensions in 0.5% Tween 80) were given by gavage, beginning on Day 18 after adjuvant administration and for 5 days a week (Monday through Friday) through Day 49. Paw volumes were recorded on days 18, 29 and 50 after adjuvant injection. On Day 50, the rats were killed (carbon dioxide) and the uninjected hind limb was x-rayed and scored for bone damage on an arbitrary 1 (no damage) to 10 (maximum damage) scale.
Data collected for hind paw volumes and bone damage were analyzed by the Dunnett's t-test [Dunnett, C. W., J. Amer. Stat. Assoc., 50:1096-1121 (1955)], comparing a positive control group with several treated groups.

Data set [2] deals with seventeen (17) days-old chick embryo calvaria. The experiment in a line: bone resorption in vitro induced by parathyroid hormone (PTH). The format is cell-based. As to conditions: Gallus gallus; for inhibition at 100 µM: compound 10^-4 M; for inhibition at 10 µM: compound 10^-5 M; for inhibition at 1 µM: compound 10^-6 M. Here is the method: In order to determine the effectiveness of Formula I compounds in the treatment and/or prevention of osteoporosis in mammalian species an in vitro experimental procedure was utilized to measure bone resorption. The procedure utilized was as follows.
Bone resorption in vitro was measured essentially as outlined by Hall and Kenny (Pharmacology 30:339-347, 1985), except however, seventeen (17) days-old chick embryo calvaria were utilized instead of mice calvaria. Resorption is defined as the amount of calcium (mg/ml) in the medium of vehicle-treated cultures. The effects of the Formula I test compounds were determined by monitoring the effect on calcium concentrations in presence of drug relative to control calcium concentrations at a particular PTH (parathyroid hormone) concentration. The % inhibition of resorption induced by parathyroid hormone by Formula I compounds was calculated as follows: [formula] where Ca (PTH)=Ca (PTH)-Ca (Vehicle medium), and
Ca (PTH+Formula I compound)=Ca (PTH+Formula I compound)

Data set [3] is described as follows: hygroscopicity observation. It counts as physicochemical. The note with it: white crystals.

Consider `COc1ccccc1OCC(COS(N)(=O)=O)OS(N)(=O)=O` (centres unmarked) [Example 3, 1-[(2-Methoxyphenoxy)methyl]-1,2-ethanediol bisulfamate (ester)], for which, in data set [1] (1 mg/kg to 100 mg/kg by gavage, Dunnett's t-test), the “reduction in paw edema, significance” value is on record as “significant”. The bone damage score in data set [1] (1 (no damage) to 10 (maximum damage) scale, x-ray of uninjected hind limb, Day 50, dosage range 1 mg/kg to 100 mg/kg by gavage, controls scored 8 to 9) is given as 5.4-5.9. The “reduction in bone damage, significance” value in data set [1] (vs. controls, 1 mg/kg to 100 mg/kg by gavage, Dunnett's t-test) is on record as “significant”. The inhibition at 100 µM in data set [2] (PTH 10^-7 M) is 10%; in data set [2] (PTH 10^-8 M) it was 40.5%; in data set [2] (PTH 10^-9 M), 66.5%; in data set [2] (PTH 10^-10 M), 100%. In addition, the inhibition at 10 µM is 21% in data set [2] (PTH 10^-7 M), 37% in data set [2] (PTH 10^-8 M), 86% in data set [2] (PTH 10^-9 M) and 100% in data set [2] (PTH 10^-10 M). Moreover, the inhibition at 1 µM in data set [2] (PTH 10^-7 M) turned out to be 21%; in data set [2] (PTH 10^-8 M) it was 29%; in data set [2] (PTH 10^-9 M) it was 100%; in data set [2] (PTH 10^-10 M), 100%. The same compound registered an inhibition at 0.1 µM in data set [2] (compound 10^-7 M, PTH 10^-8 M) of 23%.

`NS(=O)(=O)OCCN1CCCC1=O` [Example 63, 1-[2-[(Aminosulfonyl)oxy]ethyl]-2-pyrrolidinone]: the hygroscopicity entry in data set [3] was “slightly hygroscopic”.
